ChEMBL document CHEMBL3885861, “Open TG-GATES”

Species: Rattus norvegicus
Assay: Open TG-GATES - Regimen: Daily Repeat
Type: toxicity, organism-based, Sprague-Dawley
Parameters: regimen Daily Repeat, gender Male, age 6 weeks
Conditions: in vivo, po, 10 mg/kg, route gavage, dose level Low; for APTT / Bas / Eos / Fbg / Hb / Ht / Lym / MCH / MCHC / MCV / Mono / Neu / PT / Plat / RBC / Ret / WBC: tissue Blood; for KIDNEY_L / KIDNEY_R / KIDNEY_TOTAL: tissue Kidney; for LIVER: tissue Liver; for A/G / ALP / ALT / AST / BUN / CRE / Ca / Cl / DBIL / GLC / IP / K / LDH / Na / PL / RALB / TBIL / TC / TG / TP / gamma-GTP: tissue Plasma

OCCOCCN1CCN(C(c2ccccc2)c2ccc(Cl)cc2)CC1 (configuration not stated) [HYDROXYZINE]
TERMINAL_BW (72 h, time 3 day): 228.1 g | APTT (72 h, time 3 day): 16.3 s | Bas (72 h, time 3 day): 0% | Eos (72 h, time 3 day): 1% | Fbg (72 h, time 3 day): 261.4 mg/dL | Hb (72 h, time 3 day): 13 g/dL | Ht (72 h, time 3 day): 39.4% | Lym (72 h, time 3 day): 75.6% | MCH (72 h, time 3 day): 21.8 pg | MCHC (72 h, time 3 day): 33% | MCV (72 h, time 3 day): 65.9 fL | Mono (72 h, time 3 day): 2.6% | Neu (72 h, time 3 day): 20.2% | PT (72 h, time 3 day): 16 s | Plat (72 h, time 3 day): 110.5 x10_4/uL | RBC (72 h, time 3 day): 598 x10_4/ul | Ret (72 h, time 3 day): 7.3% | WBC (72 h, time 3 day): 96.2 x10_2/uL | KIDNEY_L (72 h, time 3 day): 1 g | KIDNEY_R (72 h, time 3 day): 1 g | KIDNEY_TOTAL (72 h, time 3 day): 2 g | LIVER (72 h, time 3 day): 10.8 g | A/G (72 h, time 3 day): 0.8 | ALP (72 h, time 3 day): 1662 IU/L | ALT (72 h, time 3 day): 51.2 IU/L | AST (72 h, time 3 day): 82.4 IU/L | BUN (72 h, time 3 day): 16.2 mg/dL | CRE (72 h, time 3 day): 0.2 mg/dL | Ca (72 h, time 3 day): 10.8 mg/dL | Cl (72 h, time 3 day): 105.6 meq/L | DBIL (72 h, time 3 day): 0.018 mg/dL | GLC (72 h, time 3 day): 182 mg/dL | IP (72 h, time 3 day): 7.7 mg/dL | K (72 h, time 3 day): 4 meq/L | LDH (72 h, time 3 day): 98.8 IU/L | Na (72 h, time 3 day): 142.8 meq/L | PL (72 h, time 3 day): 139 mg/dL | RALB (72 h, time 3 day): 2.6 g/dL | TBIL (72 h, time 3 day): 0.054 mg/dL | TC (72 h, time 3 day): 71.6 mg/dL | TG (72 h, time 3 day): 76 mg/dL | TP (72 h, time 3 day): 5.6 g/dL | gamma-GTP (72 h, time 3 day): 0.8 IU/L | TERMINAL_BW ([…], time 7 day): 259.3 g | TERMINAL_BW ([…], time 14 day): 323.3 g | TERMINAL_BW ([…], time 28 day): 416.4 g | APTT ([…], time 7 day): 17 s | Bas ([…], time 7 day): 0% | Eos ([…], time 7 day): 1% | Fbg ([…], time 7 day): 263 mg/dL | Hb ([…], time 7 day): 13.8 g/dL | Ht ([…], time 7 day): 41.3% | Lym ([…], time 7 day): 80.6% | MCH ([…], time 7 day): 21.5 pg | MCHC ([…], time 7 day): 33.5% | MCV ([…], time 7 day): 64.4 fL | Mono ([…], time 7 day): 1.8% | Neu ([…], time 7 day): 16.2% | PT ([…], time 7 day): 15.7 s | Plat ([…], time 7 day): 117.5 x10_4/uL | RBC ([…], time 7 day): 643 x10_4/ul | Ret ([…], time 7 day): 5.9% | WBC ([…], time 7 day): 88.4 x10_2/uL | APTT ([…], time 14 day): 18.1 s | Bas ([…], time 14 day): 0% | Eos ([…], time 14 day): 0.8% | Fbg ([…], time 14 day): 266.4 mg/dL | Hb ([…], time 14 day): 14.2 g/dL | Ht ([…], time 14 day): 41.7% | Lym ([…], time 14 day): 81.2% | MCH ([…], time 14 day): 20.7 pg | MCHC ([…], time 14 day): 34% | MCV ([…], time 14 day): 60.9 fL | Mono ([…], time 14 day): 2.4% | Neu ([…], time 14 day): 15% | PT ([…], time 14 day): 15.7 s | Plat ([…], time 14 day): 111 x10_4/uL | RBC ([…], time 14 day): 685.8 x10_4/ul | Ret ([…], time 14 day): 4.3% | WBC ([…], time 14 day): 106.7 x10_2/uL | APTT ([…], time 28 day): 18.3 s | Bas ([…], time 28 day): 0% | Eos ([…], time 28 day): 1% | Fbg ([…], time 28 day): 297.2 mg/dL | Hb ([…], time 28 day): 15.4 g/dL | Ht ([…], time 28 day): 43.7% | Lym ([…], time 28 day): 80.4% | MCH ([…], time 28 day): 20.6 pg | MCHC ([…], time 28 day): 35.2% | MCV ([…], time 28 day): 58.4 fL | Mono ([…], time 28 day): 2% | Neu ([…], time 28 day): 15% | PT ([…], time 28 day): 15.9 s | Plat ([…], time 28 day): 90.9 x10_4/uL | RBC ([…], time 28 day): 748.8 x10_4/ul | Ret ([…], time 28 day): 2.6% | WBC ([…], time 28 day): 105.9 x10_2/uL | KIDNEY_L ([…], time 7 day): 1.1 g | KIDNEY_R ([…], time 7 day): 1.1 g | KIDNEY_TOTAL ([…], time 7 day): 2.1 g | KIDNEY_L ([…], time 14 day): 1.3 g | KIDNEY_R ([…], time 14 day): 1.3 g | KIDNEY_TOTAL ([…], time 14 day): 2.7 g | KIDNEY_L ([…], time 28 day): 1.4 g | KIDNEY_R ([…], time 28 day): 1.4 g | KIDNEY_TOTAL ([…], time 28 day): 2.8 g | LIVER ([…], time 7 day): 12.6 g | LIVER ([…], time 14 day): 14.7 g | LIVER ([…], time 28 day): 16.8 g | A/G ([…], time 7 day): 0.9 | ALP ([…], time 7 day): 1602.2 IU/L | ALT ([…], time 7 day): 41 IU/L | AST ([…], time 7 day): 65.8 IU/L | BUN ([…], time 7 day): 17.4 mg/dL | CRE ([…], time 7 day): 0.2 mg/dL | Ca ([…], time 7 day): 11.1 mg/dL | Cl ([…], time 7 day): 106 meq/L | DBIL ([…], time 7 day): 0.018 mg/dL | GLC ([…], time 7 day): 189 mg/dL | IP ([…], time 7 day): 7.2 mg/dL | K ([…], time 7 day): 4.3 meq/L | LDH ([…], time 7 day): 66.2 IU/L | Na ([…], time 7 day): 142.6 meq/L | PL ([…], time 7 day): 158.2 mg/dL | RALB ([…], time 7 day): 2.7 g/dL | TBIL ([…], time 7 day): 0.052 mg/dL | TC ([…], time 7 day): 72.6 mg/dL | TG ([…], time 7 day): 118.4 mg/dL | TP ([…], time 7 day): 5.9 g/dL | gamma-GTP ([…], time 7 day): 0.8 IU/L | A/G ([…], time 14 day): 0.8 | ALP ([…], time 14 day): 1484.2 IU/L | ALT ([…], time 14 day): 40.8 IU/L | AST ([…], time 14 day): 67.2 IU/L | BUN ([…], time 14 day): 15.4 mg/dL | CRE ([…], time 14 day): 0.2 mg/dL | Ca ([…], time 14 day): 10.6 mg/dL | Cl ([…], time 14 day): 103.6 meq/L | DBIL ([…], time 14 day): 0.016 mg/dL | GLC ([…], time 14 day): 184.6 mg/dL | IP ([…], time 14 day): 7.3 mg/dL | K ([…], time 14 day): 4 meq/L | LDH ([…], time 14 day): 86.2 IU/L | Na ([…], time 14 day): 141.6 meq/L | PL ([…], time 14 day): 163 mg/dL | RALB ([…], time 14 day): 2.7 g/dL | TBIL ([…], time 14 day): 0.052 mg/dL | TC ([…], time 14 day): 74.8 mg/dL | TG ([…], time 14 day): 142.4 mg/dL | TP ([…], time 14 day): 6 g/dL | gamma-GTP ([…], time 14 day): 0.6 IU/L | A/G ([…], time 28 day): 0.8 | ALP ([…], time 28 day): 1346.6 IU/L | ALT ([…], time 28 day): 41.4 IU/L | AST ([…], time 28 day): 69.6 IU/L | BUN ([…], time 28 day): 17.4 mg/dL | CRE ([…], time 28 day): 0.2 mg/dL | Ca ([…], time 28 day): 10.6 mg/dL | Cl ([…], time 28 day): 105 meq/L | DBIL ([…], time 28 day): 0.012 mg/dL | GLC ([…], time 28 day): 196.8 mg/dL | IP ([…], time 28 day): 6.8 mg/dL | K ([…], time 28 day): 4 meq/L | LDH ([…], time 28 day): 100.8 IU/L | Na ([…], time 28 day): 142.6 meq/L | PL ([…], time 28 day): 154.8 mg/dL | RALB ([…], time 28 day): 2.8 g/dL | TBIL ([…], time 28 day): 0.05 mg/dL | TC ([…], time 28 day): 76.8 mg/dL | TG ([…], time 28 day): 113.4 mg/dL | TP ([…], time 28 day): 6.3 g/dL | gamma-GTP ([…], time 28 day): 0.8 IU/L
